What was measured:
in vivo = assay: in vivo; parameters: species or system mice; settings: mouse, iv, 5 mg/kg
Description: To determine release of conjugated drugs and metabolic stability of GNP conjugates, mice were given a single i.v. injection of SMI #9-GNP at 5 mg/kg body wt. Blood samples were collected at 0, 5 min, 15 min, 30 min, 1 h, 2 h, 4 h, 8 h, and 24 h post-injection. Similarly, to assess the stability of SMI #9 as a free drug, a single i.v. injection of SMI #9 at 5 mg/kg was injected and blood samples collected. Concentrations of SMI #9 in plasma were determined by tandem LC-MS/MS and non-compartmental analysis with WinNonlin v5.2 (Pharsight).

HCC1937 cells = assay: Mitochondrial membrane potential, JC-1 assay; type: cell-based; settings: overnight, 1 μM
Description: (§1) The impact of free SMI #9 or SMI #9-GNP on mitochondrial membrane potential (Δψm) on SUM1315 and HCC1937 TNBC cells was assessed using JC-1 (Mitocapture, Biovision, Mountainview, Calif.), a potentiometric green fluorescent dye that shifts to red fluorescence within mitochondria with a normal negative […]. Briefly, cells were incubated with the MitoCapture reagent for 15 min at 37° C. and imaged by fluorescence microscopy as described in Shekhar M P et al., Cancer Biol Ther 2008; 7:1774-82.
(§2) The percent of cells showing punctate red fluorescence or diffuse green fluorescence were scored by counting three-five fields of 50-100 cells in each field. Each experiment was repeated at least three times and results expressed as mean±S.E. Statistical significance of differences was determined by Student's t test.

SUM1315 cells = assay: Mitochondrial membrane potential, JC-1 assay; type: cell-based
Description: as §1, §2

HCC1937 TNBC cells = assay: Cell survival assay (MTT or trypan blue); type: cell-based; settings: Homo sapiens, 72 hours
Description: (§3) MDA-MB-231, SUM-1315, MDA-MB-468, and HCC1937 TNBC cells (ATCC) were maintained in Dulbecco's Modified Eagle's Medium (DMEM)/F-12 supplemented with 5% fetal bovine serum. Nontransformed MCF10A human breast cells were maintained in DMEM/F12 supplemented with 5% horse serum, 20 ng/ml epidermal growth factor, 10 μg/ml insulin, 0.5 μg/ml hydrocortisone and 0.10 μg/ml cholera toxin. Sensitivity to SMI #9-GNP was assessed by trypan blue staining or MTT colorimetric assay. Briefly, cells were seeded in 96-well plates at a density of 5-7×10^3 cells per well and allowed to attach overnight. Cells were treated with free SMI #9, SMI #9-GNP, or blank-GNP at various concentrations in triplicates for 72 hours. In some cases, treatments included various doses of cisplatin singly or in combination with SMI #9-GNP. On the final day, medium was replaced with drug free medium, incubated with MTT at 37° C. for 2-3 hours. The medium and MTT were removed, and the MTT-formazan crystals dissolved in 200 μl of 0.04 N HCl/isopropanol, and absorbance measured at 570 nm using the Synergy 2 multi-well plate reader. Alternately, cultures were trypsinized and cell viability determined by trypan blue exclusion using the Biorad TC10 automatic cell counter. At least two to three independent experiments were performed for each cell line.

[1] = system: nontransformed MCF10A human breast cells; assay: Cell survival assay (MTT or trypan blue); type: cell-based; settings: 72 hours
Description: as §3

MDA-MB-468 TNBC cells = assay: Cell survival assay (MTT or trypan blue); type: cell-based; settings: Homo sapiens; MDA-MB-468 cells, 72 hours
Description: as §3

PARP-1 in TNBC cells = assay: Western blot of PARP-1 steady-state levels; type: cell-based; settings: TNBC cell lines, 24 hours
Description: (§4) Breast cancer cells treated with vehicle, free SMI #9, blank- or SMI #9-GNP (1-5 μM) for 24-96 hours were lysed, and aliquots of lysates containing 25 μg of protein were subjected to SDS-PAGE and western blot analysis of PARP-1 (Cell Signaling), Rad6, LC3-I/II (Cell Signaling), and […] (Sigma). To determine LC3 subcellular localization, control or SMI #9-GNP treated cells were fixed with methanol:acetone (1:1, v/v) and stained with anti-LC3 antibody. Slides were incubated with FITC-conjugated secondary antibody, counterstained with DAPI and analyzed by fluorescence microscopy.

[2] = system: SUM1315 triple negative breast cancer cell derived tumors; assay: Orthotopic tumor growth assay; type: in vivo, mice; settings: SUM1315 xenografts, intraperitoneal injection at 5 mg/kg
Description: MDA-MB-468 or SUM1315 triple negative breast cancer cells (1×10^6 cells suspended in 0.1 ml Matrigel) were injected subcutaneously into the fatpads of fourth and fifth inguinal mammary glands of female nude mice. […] Control vehicle or SMI #9 free drug was administered intratumorally whereas blank-GNP and SMI #9-GNP were administered intraperitoneally. Treatments were given every fourth day. Tumor volumes and body weights were measured twice a week and mice were monitored for weight loss, gastrointestinal distress, activity, body posture, and food/water intake. Mice were sacrificed at 35-44 days postimplantation. Tumors were harvested and weighed.

[3] = system: LC3-I/LC3-II in MDA-MB-231 cells; assay: Western blot of LC3-I/II; type: cell-based; settings: 24 hours
Description: as §4

[4] = system: LC3-I/LC3-II in SUM1315 cells; assay: Western blot of LC3-I/II; type: cell-based; settings: 24 h
Description: as §4

SUM1315 TNBC cells = assay: Cell survival assay (MTT or trypan blue); settings: 72 hours, for SMI #9-GNP based on the concentration of SMI #9
Description: as §3

MDA-MB-231 TNBC cells = assay: Cell survival assay (MTT or trypan blue); settings: Homo sapiens; MDA-MB-231 cells, 72 hours; for SMI #9-GNP based on the concentration of SMI #9
Description: as §3

[5] = system: MDA-MB-468 or SUM1315 triple negative breast cancer cell derived tumors; assay: Orthotopic tumor growth assay, tumor line not given; type: in vivo; settings: female nude mice, 1.5 mg/kg intratumorally every fourth day
Description: MDA-MB-468 or SUM1315 triple negative breast cancer cells (1×10^6 cells suspended in 0.1 ml Matrigel) were injected subcutaneously into the fatpads of fourth and fifth inguinal mammary glands of female nude mice. Mice were randomized and treatments with SMI #9-GNP (0.285 mg/kg body wt), SMI #9 free drug (1.5 mg/kg body wt.), blank-GNP (volumes equivalent to SMI #9-GNP), or vehicle control were initiated upon detection of palpable lesions. Control vehicle or SMI #9 free drug was administered intratumorally whereas blank-GNP and SMI #9-GNP were administered intraperitoneally. Treatments were given every fourth day. Tumor volumes and body weights were measured twice a week and mice were monitored for weight loss, gastrointestinal distress, activity, body posture, and food/water intake. Mice were sacrificed at 35-44 days postimplantation. Tumors were harvested and weighed.

Nc1nc(COC(=O)c2ccc([N+](=O)[O-])cc2)nc(Nc2ccccc2)n1 [SMI #9]
Cmax (in vivo): 409 nM | Tmax (in vivo): ~5 min | JC-1 punctate red fluorescence (HCC1937 cells): reduced the punctate red fluorescence staining | mitochondrial integrities (SUM1315 cells): similarly and dramatically compromised | JC-1 punctate red fluorescence (SUM1315 cells; overnight, 1 μM): reduced the punctate red fluorescence staining | GI50 (HCC1937 TNBC cells): 1.8 µM | sensitivity (growth inhibition) [1]: unaffected | GI50 (MDA-MB-468 TNBC cells): 3 µM | PARP-1 processing / steady-state levels (PARP-1 in TNBC cells): stabilization/hyperactivation of PARP-1 | tumor growth [2]: no significant change in tumor growth | LC3-I and LC3-II levels [3]: downregulated both LC3-I and LC3-II | changes in LC3-I processing [4]: not readily apparent | GI50 (SUM1315 TNBC cells): 6 µM | GI50 (MDA-MB-231 TNBC cells): 5 µM | tumor growth [5]: tumor growth inhibition compared to controls
